Source: PMC6537702, “Design, synthesis, molecular modelling, and biological evaluation of novel substituted pyrimidine derivatives as potential anticancer agents for hepatocellular carcinoma” (Journal of Enzyme Inhibition and Medicinal Chemistry, 2019)
In brackets after ≈: the same amount, converted by molar mass.

Assays:
HepG2 cell line = experiment: Resazurin cell growth inhibition assay, HepG2; assay type: cell-based, human; settings: Homo sapiens, HepG2, 48 h, resazurin assay, 48 h, M ± SEM of three independent experiments; read-out: Cytotoxic activity IC50, HepG2 cell line
Text: (§1) All compounds 2a-e, 3a-d, and PPAD’s 4a-t were subjected to a screening system for evaluation of their anticancer activity against cell line of human cancer, namely liver (HepG2 and Huh-7) cancer and normal fibroblast cells obtained from the German Cancer Research Center (DKFZ), following the Resazurin Cell Growth Inhibition Assay[45] in comparison to the standard treatment using DOX (see Supplementary).
(§2) Cell culture and treatment
(§3) All reagents were handled in a sterile fume hood. DMEM medium, and fetal bovine serum (FBS) were purchased from Gibco;phosphate-buffered saline pH 7.4 (PBS) and trypsin-EDTA were obtained from Sigmae Aldrich. Alamar Blue or Resazurin (Promega,Mannheim, Germany) reduction assay was used to assess the cytotoxicity of the studied samples. The growth medium (DMEMmedium with 10% FBS, 10 0 U/mL penicillin, and 10 0 mg/L streptomycin), and alamar blue were stored at 48 C, while trypsineEDTA and FBS were stored frozen at 208C and thawed before use; PBS was stored at room temperature. The Hep-G2, Huh-7 and normal fibroblast cells were obtained from the German Cancer Research Center (DKFZ).Cells were cultured in 50 cm2 culture flask s (Corning) using DMEM medium supplemented with 10% FBS, penicillin (10 0 IU/mL), and streptomycin ([…]). The culture was maintained at 37 C atmosphere of 5% CO2 and 95% relative humidity. The cells were transferred to a new fl ask every 2 days and treated with trypsineEDTA to detach them from the flask . Cells were counted under a microscope using a hemacytometer (Hausser Scientific).Cell solutions were diluted with growth medium to a concentration of 1 *10^5 cells/mL and transferred to a 96-well plate, and treated with gradient concentrations of test compounds.
(§4) Resazurin cell growth inhibition assay
(§5) Alamar Blue or Resazurin (Promega, Mannheim, Germany) reduction assay was used to assess the cytotoxicity of the studied samples. The assay tests cellular viability and mitochondrial function. Briefly y, adherent cells were grown in tissue culture flask s, and then harvested by treating the fl asks with 0.025% trypsin and0.25 mM EDTA for 5 min. Once detached, cells were washed, counted and an aliquot (5 * 103cells) was placed in each well of a96-well cell culture plate in a total volume of […]. Cells were allowed to attach overnight and then treated with samples. The final concentration of samples ranged from 0 to 10 0 mM. After 4 8 h,[…] Resazurin 0.01% w/v solution was added to each well and the plates were incubated at 37C for 1 -2 h. Fluorescence was measured on an automated 96-well Infinite M2000 ProTM plate reader (Tecan, Crailsheim, Germany) using an excit ation wave-length of 54 4 nm and an emission wavelength of 590 nm. Doxorubicin was used as positive control. Each assay was done at least three times, with two replicates each. The viability was compared based on a comparison with untreated cells. IC50(on cancer cells) were the concentration of sample required to inhibit 50% of the cell proliferation and were calculated from a calibration curve by a linear regression using Microsoft Excel

Huh-7 cell line = experiment: Resazurin cell growth inhibition assay, Huh-7; assay type: cell-based, human; settings: Homo sapiens, Huh-7, 48 h, resazurin assay, 48 h, M ± SEM of three independent experiments; read-out: Cytotoxic activity IC50, Huh-7 cell line
Text: as §1, §2, §3, §4, §5

[1] = Resazurin cell growth inhibition assay, normal fibroblast cells; assay type: cell-based; settings: M ± SEM of three independent experiments, read-out: Cytotoxic activity IC50, Fibroblast
Text: as §1, §2, §3, §4, §5

melting point	SMILES	IC50 (HepG2 cell line)	IC50 (Huh-7 cell line)	IC50 at 48 h [1]
–	N#Cc1c(-c2ccccc2)nc(NN)[nH]c1=O [Compound 2a]	20.8 ± 1.6 µg/mL (≈ 91.5 µM)	21.7 ± 1.18 µg/mL (≈ 95.5 µM)	40 ± 1.24 µg/mL (≈ 176 µM)
–	N#Cc1c(-c2ccc(F)cc2)nc(NN)[nH]c1=O [Compound 2b]	22.2 ± 2.2 µg/mL (≈ 90.5 µM)	21.6 ± 2.19 µg/mL (≈ 88.1 µM)	40.6 ± 2.45 µg/mL (≈ 165 µM)
–	N#Cc1c(-c2c[nH]c3ccccc23)nc(NN)[nH]c1=O [Compound 2c]	20.2 ± 1.88 µg/mL (≈ 75.9 µM)	21.3 ± 2.37 µg/mL (≈ 80 µM)	40.2 ± 2.13 µg/mL (≈ 151 µM)
–	COc1cc(-c2nc(NN)[nH]c(=O)c2C#N)cc(OC)c1OC [Compound 2d]	20.6 ± 2.14 µg/mL (≈ 64.9 µM)	21.8 ± 3.18 µg/mL (≈ 68.7 µM)	40.1 ± 1.37 µg/mL (≈ 126 µM)
214 to 216 °C	CN(C)c1ccc(-c2nc(NN)[nH]c(=O)c2C#N)cc1 [Compound 2e, 4-[4-(Dimethylamino)phenyl]-2-hydrazino-6-oxo-1,6-dihydropyrimidine-5-carbonitrile]	20.1 ± 3 µg/mL (≈ 74.4 µM)	21 ± 4.12 µg/mL (≈ 77.7 µM)	40.4 ± 1.89 µg/mL (≈ 150 µM)
–	O=C(/C=C/c1ccc(F)cc1)c1c2ccccc2cc2ccccc12 [Compound 3a]	22.2 ± 2.45 µg/mL (≈ 68 µM)	21.8 ± 1.24 µg/mL (≈ 66.8 µM)	40.6 ± 2.48 µg/mL (≈ 124 µM)
–	CN(C)c1ccc(/C=C/C(=O)c2c3ccccc3cc3ccccc23)cc1 [Compound 3b]	21.4 ± 2.76 µg/mL (≈ 60.9 µM)	21 ± 1.12 µg/mL (≈ 59.8 µM)	40.7 ± 2.34 µg/mL (≈ 116 µM)
–	COc1cc(/C=C/C(=O)c2c3ccccc3cc3ccccc23)cc(OC)c1OC [Compound 3c]	21.5 ± 2.54 µg/mL (≈ 54 µM)	21.5 ± 4.13 µg/mL (≈ 54 µM)	40.8 ± 4.51 µg/mL (≈ 102 µM)
170 to 172 °C	O=C(/C=C/c1c[nH]c2ccccc12)c1c2ccccc2cc2ccccc12 [Compound 3d, (2E)-1–(9-anthryl)-3-(1H-indol-3-yl)prop-2-en-1-one]	22.5 ± 2.8 µg/mL (≈ 64.8 µM)	22.6 ± 3.3 µg/mL (≈ 65.1 µM)	40.8 ± 4.72 µg/mL (≈ 117 µM)
150 to 151 °C	N#Cc1c(-c2ccccc2)nc(N2N=C(c3c4ccccc4cc4ccccc34)CC2c2ccc(F)cc2)[nH]c1=O (stereo not shown) [Compound 4a, 2-[3-Anthracene-9-yl-5–(4-fluoro-phenyl)-4,5-dihydro-pyrazol-1-yl]-6-oxo-4-phenyl-1,6-dihydro-pyrimidine-5-carbonitrile]	11.3 ± 2.11 µg/mL (≈ 21.2 µM)	16.8 ± 3.45 µg/mL (≈ 31.3 µM)	32.3 ± 5.22 µg/mL (≈ 60.3 µM)
120 to 122 °C	CN(C)c1ccc(C2CC(c3c4ccccc4cc4ccccc34)=NN2c2nc(-c3ccccc3)c(C#N)c(=O)[nH]2)cc1 (stereo not shown) [Compound 4b, 2-[3-Anthracene-9-yl-5–(4-dimethylamino-phenyl)-4,5-dihydro-pyrazol-1-yl]-6-oxo-4-phenyl-1,6-dihydro-pyrimidine-5-carbonitrile]	15.3 ± 4.21 µg/mL (≈ 27.3 µM)	10.9 ± 2.14 µg/mL (≈ 19.5 µM)	33 ± 6.51 µg/mL (≈ 58.9 µM)
